Values joined by “and” are separate entries in the source; they are usually repeats but may differ in a detail not shown here. Equal entries are not always repeated. Inconclusive results and toxic doses are left out.

The assay concerns P1534 leukemia ip, CD2F1 mice, survival T/C. Kind of assay: NCI In Vivo Anticancer Drug Screen. Data for tumor model P1534 Leukemia (intraperitoneal) in CD2F1 (CDF1) mice. Conditions: higher = longer survival. The procedure: The antitumor activity of compounds was measured in mice bearing transplantable tumors. Survival or tumor size were measured and the results are expressed as the measurement made in the treated group (T) divided by the measurement made in the vehicle treated control group (C). The tumor model used in this assay is P1534 Leukemia (intraperitoneal) in CD2F1 (CDF1) mice

[1] abbreviates: endpoint: mean survival time, dose: 50.0 mg/kg/injection, schedule: Q01DX010 (ip), vehicle: saline.
The mark [2] stands for this setting: endpoint: mean survival time, dose: 100.0 mg/kg/injection, schedule: Q01DX010 (ip), vehicle: saline.
[3] abbreviates: endpoint: mean survival time, dose: 200.0 mg/kg/injection, schedule: Q01DX010 (ip), vehicle: saline.
Setting [4] is: endpoint: mean survival time, dose: 400.0 mg/kg/injection, schedule: Q01DX010 (ip), vehicle: saline.
Setting [5] is: endpoint: mean survival time, dose: 4.0 mg/kg/injection, schedule: Q01DX010 (ip), vehicle: saline.
[6] abbreviates: endpoint: mean survival time, dose: 8.0 mg/kg/injection, schedule: Q01DX010 (ip), vehicle: saline.
Setting [7] is: endpoint: mean survival time, dose: 10.0 mg/kg/injection, schedule: Q01DX010 (ip), vehicle: saline.
Where [8] appears, read: endpoint: mean survival time, dose: 20.0 mg/kg/injection, schedule: Q01DX010 (ip), vehicle: saline.
[9] abbreviates: endpoint: mean survival time, dose: 25.0 mg/kg/injection, schedule: Q01DX010 (ip), vehicle: saline.
Where [10] appears, read: endpoint: mean survival time, dose: 40.0 mg/kg/injection, schedule: Q01DX010 (ip), vehicle: saline.
[11] abbreviates: endpoint: mean survival time, dose: 6.25 mg/kg/injection, schedule: Q01DX010 (ip), vehicle: saline.
[12] abbreviates: endpoint: mean survival time, dose: 12.5 mg/kg/injection, schedule: Q01DX010 (ip), vehicle: saline.
Where [13] appears, read: endpoint: mean survival time, dose: 32.0 mg/kg/injection, schedule: Q01DX010 (ip), vehicle: saline.
[14] abbreviates: endpoint: mean survival time, dose: 64.0 mg/kg/injection, schedule: Q01DX010 (ip), vehicle: saline.

With `COc1cc2c3c(c4ccc(OC)c(OC)c4c2cc1OC)CN1CCC[C@@H]1C3`, the T/C is 105 % of control (endpoint: mean survival time, dose: 2.5 mg/kg/injection, schedule: Q01DX010 (ip), vehicle: water); 102 % of control (endpoint: mean survival time, dose: 5.0 mg/kg/injection, schedule: Q01DX010 (ip), vehicle: water); 124 % of control (endpoint: mean survival time, dose: 7.5 mg/kg/injection, schedule: Q01DX010 (ip), vehicle: water); 113 % of control (endpoint: mean survival time, dose: 10.0 mg/kg/injection, schedule: Q01DX010 (ip), vehicle: water).

As to `NCC(=O)NCCCCCCNCCCCCCNC(=O)CN`, the T/C is, setting by setting: under setting [1], 100 % of control; under setting [2], 100 % of control; under setting [3], 100 % of control; under setting [4], 100 % of control.

As to `Nc1nc(F)nc2c1ncn2C1OC(CO)C(O)C1O` (centres undefined), the T/C by setting is: (endpoint: mean survival time, dose: 1.0 mg/kg/injection, schedule: Q01DX010 (ip), vehicle: saline) 110 % of control and 100 % of control; (endpoint: mean survival time, dose: 2.0 mg/kg/injection, schedule: Q01DX010 (ip), vehicle: saline) 103 % of control; under setting [5], 96 % of control; under setting [6], 92 % of control.

Consider `COc1ccc2c(=O)cc(-c3ccccc3)n(C)c2c1`, for which the T/C is 103 % of control under setting [1], 103 % of control under setting [2], 103 % of control under setting [3] and 96 % of control under setting [4].

On to `CCCCOP(=S)(N1CC1)N1CC1`, for which the T/C under setting [5] was 115 % of control and the T/C under setting [6] is 123 % of control.

As to `O=CC1CO1` (centres undefined), the T/C by setting is: (endpoint: mean survival time, dose: 13.0 mg/kg/injection, schedule: Q01DX010 (ip), vehicle: saline) 107 % of control; (endpoint: mean survival time, dose: 19.0 mg/kg/injection, schedule: Q01DX010 (ip), vehicle: saline) 107 % of control; (endpoint: mean survival time, dose: 29.0 mg/kg/injection, schedule: Q01DX010 (ip), vehicle: saline) 111 % of control; (endpoint: mean survival time, dose: 29.0 mg/kg/injection, schedule: Q01DX010 (ip), vehicle: steriod suspending solution) 100 % of control; (endpoint: mean survival time, dose: 44.0 mg/kg/injection, schedule: Q01DX010 (ip), vehicle: saline) 100 % of control; (endpoint: mean survival time, dose: 44.0 mg/kg/injection, schedule: Q01DX010 (ip), vehicle: steriod suspending solution) 86 % of control.

With `CN(C)c1ccc(/C=C\c2ccnc3ccccc23)cc1`, the T/C is, setting by setting: under setting [6], 115 % of control; (endpoint: mean survival time, dose: 12.0 mg/kg/injection, schedule: Q01DX010 (ip), vehicle: saline) 115 % of control; (endpoint: mean survival time, dose: 18.0 mg/kg/injection, schedule: Q01DX010 (ip), vehicle: saline) 103 % of control and 100 % of control; (endpoint: mean survival time, dose: 27.0 mg/kg/injection, schedule: Q01DX010 (ip), vehicle: saline) 123 % of control.

Turning to `CCC1=CC2CN3CCc4c([nH]c5ccccc45)C(C(=O)OC)(C2)C13` (centres undefined), the T/C is, setting by setting: (endpoint: mean survival time, dose: 2.5 mg/kg/injection, schedule: Q01DX010 (ip), vehicle: saline) 117 % of control; (endpoint: mean survival time, dose: 5.0 mg/kg/injection, schedule: Q01DX010 (ip), vehicle: saline) 103 % of control; under setting [7], 100 % of control; under setting [8], 92 % of control.

As for `C[C@]12CCC(=O)C[C@H]1CC[C@@H]1[C@@H]2CC[C@@]2(C)[C@H]1CC[C@]2(C)O`, the T/C runs as follows: (endpoint: mean survival time, dose: 50.0 mg/kg/injection, schedule: Q01DX010 (sc), vehicle: steriod suspending solution) 100 % of control; (endpoint: mean survival time, dose: 100.0 mg/kg/injection, schedule: Q01DX010 (sc), vehicle: steriod suspending solution) 100 % of control; (endpoint: mean survival time, dose: 200.0 mg/kg/injection, schedule: Q01DX010 (sc), vehicle: steriod suspending solution) 96 % of control; (endpoint: mean survival time, dose: 400.0 mg/kg/injection, schedule: Q01DX010 (sc), vehicle: steriod suspending solution) 96 % of control.

With `O=C(NCCCCC(NC(=O)c1ccccc1)C(=O)NCCCCCCNCCCCCCNC(=O)C(CCCCNC(=O)c1ccccc1)NC(=O)c1ccccc1)c1ccccc1` (centres undefined), the T/C is, setting by setting: under setting [9], 100 % of control; under setting [1], 110 % of control; under setting [2], 100 % of control; under setting [3], 106 % of control.

Take `CC1CCOS(=O)O1` (centres undefined): the T/C runs as follows: under setting [7], 103 % of control; under setting [8], 100 % of control; under setting [10], 100 % of control.

For the molecule `CN(C)/N=N/c1nc[nH]c1C(N)=O`, the T/C under setting [11] was 100 % of control, the T/C under setting [12] is 107 % of control, the T/C under setting [9] is 103 % of control and the T/C under setting [1] was 107 % of control.

`CS(=O)(=O)OCC(O)C(O)C(O)C(O)COS(C)(=O)=O` (centres undefined): the T/C was 107 % of control under setting [9]; 103 % of control and 100 % of control under setting [1]; 107 % of control under setting [2]; 107 % of control and 121 % of control under setting [3].

As to `O=C(Nc1ccc(C2=NCCN2)cc1)c1cccc(C(=O)Nc2ccc(C3=NCCN3)cc2)c1`, the T/C runs as follows: under setting [6], 109 % of control; (endpoint: mean survival time, dose: 16.0 mg/kg/injection, schedule: Q01DX010 (ip), vehicle: saline) 118 % of control; under setting [13], 154 % of control; under setting [14], 163 % of control and 168 % of control.

Consider `COc1ccc(/C=N/NC(N)=S)cc1`, for which the T/C is 100 % of control under setting [13]; 100 % of control under setting [14]; 100 % of control (endpoint: mean survival time, dose: 128.0 mg/kg/injection, schedule: Q01DX010 (ip), vehicle: saline); 106 % of control (endpoint: mean survival time, dose: 256.0 mg/kg/injection, schedule: Q01DX010 (ip), vehicle: saline).

In the case of `O=c1ccc2ccccc2o1`, the T/C under setting [1] is 107 % of control, the T/C under setting [2] is 107 % of control and the T/C under setting [3] is 107 % of control.

As for `Nc1nc(N)c2nc(CNc3ccc(C(=O)NC(CCC(=O)O)C(=O)O)cc3)cnc2n1` (centres undefined), the T/C by setting is: (endpoint: mean survival time, dose: 25.0 micrograms/kg/injection, schedule: Q01DX010 (ip), vehicle: other) 109 % of control; (endpoint: mean survival time, dose: 50.0 micrograms/kg/injection, schedule: Q01DX010 (ip), vehicle: other) 113 % of control and 122 % of control; (endpoint: mean survival time, dose: 100.0 micrograms/kg/injection, schedule: Q01DX010 (ip), vehicle: other) 159 % of control; (endpoint: mean survival time, dose: 200.0 micrograms/kg/injection, schedule: Q01DX010 (ip), vehicle: other) 95 % of control and 100 % of control; (endpoint: median survival time, dose: 0.05 mg/kg/injection, schedule: Q01DX009 (ip), vehicle: sodium bicarbonate) 164 % of control; (endpoint: median survival time, dose: 0.1 mg/kg/injection, schedule: Q01DX009 (ip), vehicle: sodium bicarbonate) 93 % of control.

In the case of `COc1ccc(C2NC(C(=O)O)Cc3c2[nH]c2ccccc32)cc1OC` (centres undefined), the T/C is 96 % of control under setting [1], 100 % of control under setting [2], 100 % of control under setting [3] and 100 % of control under setting [4].

Take `CN(C)c1ccc(C(N)=O)cn1`: the T/C reads like this: (endpoint: mean survival time, dose: 1.5 mg/kg/injection, schedule: Q01DX010 (ip), vehicle: saline) 115 % of control; (endpoint: mean survival time, dose: 3.0 mg/kg/injection, schedule: Q01DX010 (ip), vehicle: saline) 123 % of control.

`CCN(CC)CCNc1ccc(C)c2sc3ccccc3c(=O)c12`: the T/C was 103 % of control under setting [8]; 103 % of control under setting [10]; 107 % of control (endpoint: mean survival time, dose: 80.0 mg/kg/injection, schedule: Q01DX010 (ip), vehicle: saline).

As for `CC(O)CCc1ccc(OC(=O)c2ccccc2)cc1` (centres undefined), the T/C was 89 % of control under setting [1], 93 % of control under setting [2], 89 % of control under setting [3] and 93 % of control under setting [4].

Turning to `CC1CCC2(NC1)OC1CC3C4CCC5CC(OC6OC(CO)C(OC7OC(CO)C(O)C(OC8OCC(O)C(O)C8O)C7OC7OC(CO)C(O)C(O)C7O)C(O)C6O)CCC5(C)C4CCC3(C)C1C2C` (centres undefined), the T/C runs as follows: (endpoint: mean survival time, dose: 5.0 mg/kg/injection, schedule: Q01DX010 (sc), vehicle: steriod suspending solution) 100 % of control; (endpoint: mean survival time, dose: 10.0 mg/kg/injection, schedule: Q01DX010 (sc), vehicle: steriod suspending solution) 100 % of control.

Consider `CCCCCCCCCCCCNCCCCCCCCCCCC`, for which the T/C is, setting by setting: (endpoint: mean survival time, dose: 5.0 mg/kg/injection, schedule: Q01DX010 (ip), vehicle: other) 106 % of control; (endpoint: mean survival time, dose: 10.0 mg/kg/injection, schedule: Q01DX010 (ip), vehicle: other) 98 % of control.

`COc1ccc2cc3[n+](cc2c1OC)CCc1cc2c(cc1-3)OCO2`: the T/C by setting is: (endpoint: mean survival time, dose: 1.56 mg/kg/injection, schedule: Q01DX010 (ip), vehicle: saline) 106 % of control; (endpoint: mean survival time, dose: 3.13 mg/kg/injection, schedule: Q01DX010 (ip), vehicle: saline) 106 % of control; under setting [11], 110 % of control; under setting [12], 123 % of control.

Values taken from PubChem BioAssay AID316 (DTP/NCI, 2004).
